The target in one assay is SMARCA4 (Homo sapiens, UniProt P51532). Put plainly: HiBiT assay for protein degradation, Hela SMARCA4-HiBiT cells (A series). Format: cell-based. Set-up: fuse HiBiT to the carboxy terminus of SMARCA2 (Promega CS302365) or SMARCA4 (Promega CS3023225); host or cells: HeLa (CRISPR/Cas9 HiBiT knock-in). The conditions noted are these: Hela SMARCA4-HiBiT cells, 24 hours treatment; for DC50: read-out: SMARC A4 Hela HiBit DC50; for Dmax: read-out: SMARC A4 Hela HiBit Dmax. In outline:
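SMARCA4 degradation was measured in HeLa cells in which HiBiT had been knocked into the SMARCA4 carboxy terminus via CRISPR/Cas9 (Promega CS3023225). Cells were maintained in DMEM with FBS and penicillin-streptomycin. At the end of treatment, SMARCA4 levels were read by lytic HiBiT luminescence (Nano-Glo®, Promega N3050), and data were analyzed with GraphPad Prism.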
For orientation: The HiBiT peptide binds its large partner to form an active luciferase.

The target in another assay is SMARCA2 (Homo sapiens, UniProt P51531). Put plainly: HiBiT assay for protein degradation, Hela SMARCA2-HiBiT cells (A series).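 As to SMARC A2 Hela HiBit Dmax (%): 24 h compound treatment.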 Format: cell-based. More on the design: Hela cells were genetically modified via CRISPR/Cas9 to fuse HiBiT to the carboxy terminus of SMARCA2; host or cells: HeLa (CRISPR/Cas9 HiBiT knock-in). The conditions noted are these: Hela SMARCA2-HiBiT cells, 24 hours treatment; for DC50: read-out: SMARC A2 Hela HiBit DC50; for Dmax: read-out: SMARC A2 Hela HiBit Dmax (%). The method in brief:
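SMARCA2 degradation was measured in HeLa cells whose endogenous SMARCA2 carries a carboxy-terminal HiBiT tag introduced by CRISPR/Cas9 (Promega CS302365). Cells were maintained in DMEM with FBS and penicillin-streptomycin. SMARCA2 levels were read at the end of the experiment by Nano-Glo® HiBiT lytic luminescence (Promega N3050) and analyzed in GraphPad Prism.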

Chain of SMARCA2 (P51531 whole entry): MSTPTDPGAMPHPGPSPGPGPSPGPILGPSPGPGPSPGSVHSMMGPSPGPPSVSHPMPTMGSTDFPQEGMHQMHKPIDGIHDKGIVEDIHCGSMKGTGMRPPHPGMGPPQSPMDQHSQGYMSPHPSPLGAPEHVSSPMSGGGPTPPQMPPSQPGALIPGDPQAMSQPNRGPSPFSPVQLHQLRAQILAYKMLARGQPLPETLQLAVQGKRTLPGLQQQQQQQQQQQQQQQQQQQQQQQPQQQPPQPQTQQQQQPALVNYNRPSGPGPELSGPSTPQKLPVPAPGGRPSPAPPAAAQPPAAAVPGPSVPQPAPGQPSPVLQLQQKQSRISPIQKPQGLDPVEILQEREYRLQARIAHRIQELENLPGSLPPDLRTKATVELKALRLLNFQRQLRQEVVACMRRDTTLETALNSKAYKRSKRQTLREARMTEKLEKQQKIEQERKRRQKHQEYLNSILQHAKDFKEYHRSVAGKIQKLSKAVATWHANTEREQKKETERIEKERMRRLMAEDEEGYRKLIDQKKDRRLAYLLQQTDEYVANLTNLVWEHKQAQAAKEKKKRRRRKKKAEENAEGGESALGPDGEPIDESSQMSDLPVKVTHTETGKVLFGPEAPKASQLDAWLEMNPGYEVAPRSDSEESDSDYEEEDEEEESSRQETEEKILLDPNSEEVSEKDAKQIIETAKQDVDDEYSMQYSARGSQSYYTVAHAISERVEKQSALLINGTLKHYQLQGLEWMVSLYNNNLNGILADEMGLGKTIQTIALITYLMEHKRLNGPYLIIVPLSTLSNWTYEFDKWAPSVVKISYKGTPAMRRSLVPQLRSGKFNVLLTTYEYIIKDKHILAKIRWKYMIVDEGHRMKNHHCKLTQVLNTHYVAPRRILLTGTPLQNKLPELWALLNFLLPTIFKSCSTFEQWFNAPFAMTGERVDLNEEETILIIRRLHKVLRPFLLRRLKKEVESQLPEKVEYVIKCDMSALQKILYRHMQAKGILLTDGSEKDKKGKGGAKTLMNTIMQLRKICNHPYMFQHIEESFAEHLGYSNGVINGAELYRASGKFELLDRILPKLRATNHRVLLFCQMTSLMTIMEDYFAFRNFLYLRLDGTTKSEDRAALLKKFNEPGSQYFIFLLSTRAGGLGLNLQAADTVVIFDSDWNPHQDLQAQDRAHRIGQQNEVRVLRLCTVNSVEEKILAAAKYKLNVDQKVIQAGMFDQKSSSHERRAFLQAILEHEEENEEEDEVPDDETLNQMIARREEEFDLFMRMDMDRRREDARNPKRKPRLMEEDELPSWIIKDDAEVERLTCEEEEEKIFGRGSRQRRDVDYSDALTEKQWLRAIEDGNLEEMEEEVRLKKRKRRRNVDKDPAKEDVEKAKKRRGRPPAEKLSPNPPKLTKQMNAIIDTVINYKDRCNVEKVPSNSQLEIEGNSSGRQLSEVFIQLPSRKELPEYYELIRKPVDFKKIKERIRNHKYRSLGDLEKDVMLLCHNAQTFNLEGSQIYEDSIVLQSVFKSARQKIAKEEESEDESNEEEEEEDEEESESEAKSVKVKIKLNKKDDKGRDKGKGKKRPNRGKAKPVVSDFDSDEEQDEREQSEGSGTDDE
Chain of SMARCA4 (P51532 whole entry): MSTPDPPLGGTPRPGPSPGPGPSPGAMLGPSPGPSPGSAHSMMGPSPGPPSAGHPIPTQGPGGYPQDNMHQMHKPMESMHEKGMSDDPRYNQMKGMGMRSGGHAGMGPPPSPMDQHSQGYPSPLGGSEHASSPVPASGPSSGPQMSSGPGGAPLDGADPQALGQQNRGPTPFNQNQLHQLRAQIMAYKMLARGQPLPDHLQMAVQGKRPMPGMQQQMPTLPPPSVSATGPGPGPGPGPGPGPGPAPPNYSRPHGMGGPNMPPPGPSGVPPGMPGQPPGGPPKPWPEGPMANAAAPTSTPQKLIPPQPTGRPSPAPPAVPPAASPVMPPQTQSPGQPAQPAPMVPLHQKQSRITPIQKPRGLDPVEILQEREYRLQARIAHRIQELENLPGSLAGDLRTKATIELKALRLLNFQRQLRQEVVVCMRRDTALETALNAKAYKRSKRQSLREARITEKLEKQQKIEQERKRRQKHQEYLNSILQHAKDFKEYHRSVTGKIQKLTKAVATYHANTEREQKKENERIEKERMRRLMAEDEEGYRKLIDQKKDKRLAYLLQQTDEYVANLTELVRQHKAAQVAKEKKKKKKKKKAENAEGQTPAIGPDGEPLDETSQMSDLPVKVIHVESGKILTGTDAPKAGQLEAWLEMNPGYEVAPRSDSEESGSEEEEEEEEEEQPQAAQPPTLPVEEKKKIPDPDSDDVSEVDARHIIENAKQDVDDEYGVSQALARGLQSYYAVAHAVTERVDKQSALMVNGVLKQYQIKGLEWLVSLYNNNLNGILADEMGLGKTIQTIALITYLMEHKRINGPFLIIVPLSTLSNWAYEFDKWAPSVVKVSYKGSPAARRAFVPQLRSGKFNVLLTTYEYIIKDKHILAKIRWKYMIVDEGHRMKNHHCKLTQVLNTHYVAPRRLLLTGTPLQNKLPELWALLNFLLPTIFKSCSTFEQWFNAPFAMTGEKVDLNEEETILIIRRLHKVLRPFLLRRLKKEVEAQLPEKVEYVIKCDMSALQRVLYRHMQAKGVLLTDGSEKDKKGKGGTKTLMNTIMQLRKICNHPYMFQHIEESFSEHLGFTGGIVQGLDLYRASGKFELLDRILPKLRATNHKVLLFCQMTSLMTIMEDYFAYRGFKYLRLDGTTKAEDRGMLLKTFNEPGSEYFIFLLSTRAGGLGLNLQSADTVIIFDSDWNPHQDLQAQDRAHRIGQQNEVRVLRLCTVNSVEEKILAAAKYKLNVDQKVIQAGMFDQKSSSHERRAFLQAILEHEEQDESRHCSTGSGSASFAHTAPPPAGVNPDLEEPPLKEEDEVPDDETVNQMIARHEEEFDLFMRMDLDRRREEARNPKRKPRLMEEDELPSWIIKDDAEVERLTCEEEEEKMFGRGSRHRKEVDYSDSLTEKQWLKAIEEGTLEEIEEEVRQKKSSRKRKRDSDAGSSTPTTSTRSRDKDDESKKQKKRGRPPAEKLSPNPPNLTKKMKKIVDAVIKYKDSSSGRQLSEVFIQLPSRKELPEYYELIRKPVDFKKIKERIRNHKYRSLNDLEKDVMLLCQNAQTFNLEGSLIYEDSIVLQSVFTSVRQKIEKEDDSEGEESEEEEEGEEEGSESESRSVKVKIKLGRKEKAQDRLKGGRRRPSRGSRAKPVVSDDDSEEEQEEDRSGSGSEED

By DC50 is commonly meant the midpoint of the concentration-degradation curve. In general, Dmax refers to the greatest extent of degradation seen. Take `Cc1ncsc1-c1ccc([C@H](C)NC(=O)[C@@H]2C[C@@H](O)CN2C(=O)[C@H](C2CCN(C(=O)CCCN3CCC(c4ccc5c(c4)-n4c(nc(=O)c6c(Cl)cccc64)C54CCCCC4)CC3)CC2)n2cc(C3CC3)nn2)cc1` [Compound A106, (2S,4R)-1-((S)-2-(1-(4-(4-(4′-chloro-5′-oxo-5′H-spiro[cyclohexane-1,7′-indolo[1,2-a]quinazolin]-10′-yl)piperidin-1-yl)butanoyl)piperidin-4-yl)-2-(4-cyclopropyl-1H-1,2,3-triazol-1-yl)acetyl)-4-hydroxy-N—((S)-1-(4-(4-methylthiazol-5-yl)phenyl)ethyl)pyrrolidine-2-carboxamide]: on SMARCA4, the DC50 is 100 to 1000 nM and the greatest degradation seen (Dmax) was below 50%. In addition, on SMARCA2, the half-maximal degradation concentration (DC50) is 100 to 1000 nM and the Dmax was 70 to 90%.
Regarding `Cc1ncsc1-c1ccc([C@H](C)NC(=O)[C@@H]2C[C@@H](O)CN2C(=O)[C@H](C2CCN(C(=O)CCCCN3CCC(c4ccc5c(c4)-n4c(nc(=O)c6c(Cl)cccc64)C54CCCCC4)CC3)CC2)n2cc(C3CC3)nn2)cc1` [Compound A107, (2S,4R)-1-((S)-2-(1-(5-(4-(4′-chloro-5′-oxo-5′H-spiro[cyclohexane-1,7′-indolo[1,2-a]quinazolin]-10′-yl)piperidin-1-yl)pentanoyl)piperidin-4-yl)-2-(4-cyclopropyl-1H-1,2,3-triazol-1-yl)acetyl)-4-hydroxy-N—((S)-1-(4-(4-methylthiazol-5-yl)phenyl)ethyl)pyrrolidine-2-carboxamide], at SMARCA4, the DC50 was above 1000 nM and the Dmax is below 50%. Also, at SMARCA2, the DC50 was in the range of 100 to 1000 nM and the Dmax fell in the range of 70 to 90%.
As for `Cc1ncsc1-c1ccc([C@H](C)NC(=O)[C@@H]2C[C@@H](O)CN2C(=O)[C@H](C2CCN(C(=O)[C@H]3CC[C@H](CN4CCC(c5ccc6c(c5)-n5c(nc(=O)c7c(Cl)cccc75)C65CCCCC5)CC4)CC3)CC2)n2cc(C3CC3)nn2)cc1` [Compound A108, (2S,4R)-1-((S)-2-(1-((1r,4S)-4-((4-(4′-chloro-5′-oxo-5′H-spiro[cyclohexane-1,7′-indolo[1,2-a]quinazolin]-10′-yl)piperidin-1-yl)methyl)cyclohexane-1-carbonyl)piperidin-4-yl)-2-(4-cyclopropyl-1H-1,2,3-triazol-1-yl)acetyl)-4-hydroxy-N—((S)-1-(4-(4-methylthiazol-5-yl)phenyl)ethyl)pyrrolidine-2-carboxamide], at SMARCA4, the DC50 is above 1000 nM and the maximal degradation (Dmax) is below 50%. For the same compound, at SMARCA2, the DC50 was below 10 nM and the Dmax was 70 to 90%.
In the case of `Cc1ncsc1-c1ccc([C@H](C)NC(=O)[C@@H]2C[C@@H](O)CN2C(=O)[C@H](C2CCNCC2)n2cc([C@H]3CC[C@H](CN4CCC(c5ccc6c(c5)-n5c(nc(=O)c7c(Cl)cccc75)C65CCCCC5)CC4)CC3)nn2)cc1` [Compound A109, (2S,4R)-1-((S)-2-(4-((1r,4S)-4-((4-(4′-chloro-5′-oxo-5′H-spiro[cyclohexane-1,7′-indolo[1,2-a]quinazolin]-10′-yl)piperidin-1-yl)methyl)cyclohexyl)-1H-1,2,3-triazol-1-yl)-2-(piperidin-4-yl)acetyl)-4-hydroxy-N—((S)-1-(4-(4-methylthiazol-5-yl)phenyl)ethyl)pyrrolidine-2-carboxamide], at SMARCA4, the 50% degradation concentration (DC50) was above 1000 nM and the Dmax lay in the range of 50 to 69%. On SMARCA2, the DC50 fell in the range of 100 to 1000 nM and the Dmax was 70 to 90%.
`Cc1ncsc1-c1ccc([C@H](C)NC(=O)[C@@H]2C[C@@H](O)CN2C(=O)[C@H](C2CCN(C)CC2)n2cc([C@H]3CC[C@H](CN4CCC(c5ccc6c(c5)-n5c(nc(=O)c7c(Cl)cccc75)C65CCCCC5)CC4)CC3)nn2)cc1` [Compound A110, (2S,4R)-1-((S)-2-(4-((1r,4S)-4-((4-(4′-chloro-5′-oxo-5′H-spiro[cyclohexane-1,7′-indolo[1,2-a]quinazolin]-10′-yl)piperidin-1-yl)methyl)cyclohexyl)-1H-1,2,3-triazol-1-yl)-2-(1-methylpiperidin-4-yl)acetyl)-4-hydroxy-N—((S)-1-(4-(4-methylthiazol-5-yl)phenyl)ethyl)pyrrolidine-2-carboxamide]: at SMARCA4, the DC50 was above 1000 nM and the Dmax is 50 to 69%. Also, on SMARCA2, the half-maximal degradation concentration (DC50) fell in the range of 10 to 100 nM and the Dmax was above 90%.
For the compound `CC(=O)N1CCC([C@@H](C(=O)N2C[C@H](O)C[C@H]2C(=O)N[C@@H](C)c2ccc(-c3scnc3C)cc2)n2cc([C@H]3CC[C@H](CN4CCC(c5ccc6c(c5)-n5c(nc(=O)c7c(Cl)cccc75)C65CCCCC5)CC4)CC3)nn2)CC1` [Compound A111, (2S,4R)-1-((S)-2-(1-acetylpiperidin-4-yl)-2-(4-((1r,4S)-4-((4-(4′-chloro-5′-oxo-5′H-spiro[cyclohexane-1,7′-indolo[1,2-a]quinazolin]-10′-yl)piperidin-1-yl)methyl)cyclohexyl)-1H-1,2,3-triazol-1-yl)acetyl)-4-hydroxy-N—((S)-1-(4-(4-methylthiazol-5-yl)phenyl)ethyl)pyrrolidine-2-carboxamide], the values for the half-maximal degradation concentration (DC50) on SMARCA4 and on SMARCA2 were 10 to 100 nM and below 10 nM, respectively. Also, the Dmax on SMARCA4 was 70 to 90%; on SMARCA2, above 90%.
As for `Cc1ncsc1-c1ccc([C@H](C)NC(=O)[C@@H]2C[C@@H](O)CN2C(=O)[C@H](C2CCN(C3CCOCC3)CC2)n2cc([C@H]3CC[C@H](CN4CCC(c5ccc6c(c5)-n5c(nc(=O)c7c(Cl)cccc75)C65CCCCC5)CC4)CC3)nn2)cc1` [Compound A112, (2S,4R)-1-((S)-2-(4-((1r,4S)-4-((4-(4′-chloro-5′-oxo-5′H-spiro[cyclohexane-1,7′-indolo[1,2-a]quinazolin]-10′-yl)piperidin-1-yl)methyl)cyclohexyl)-1H-1,2,3-triazol-1-yl)-2-(1-(tetrahydro-2H-pyran-4-yl)piperidin-4-yl)acetyl)-4-hydroxy-N—((S)-1-(4-(4-methylthiazol-5-yl)phenyl)ethyl)pyrrolidine-2-carboxamide], at SMARCA4, the DC50 was 100 to 1000 nM and the maximal degradation (Dmax) fell in the range of 50 to 69%. Further, on SMARCA2, the DC50 is below 10 nM and the Dmax was above 90%.
For the compound `Cc1ncsc1-c1ccc([C@H](C)NC(=O)[C@@H]2C[C@@H](O)CN2C(=O)[C@H](C2CCN(C(=O)[C@@H]3COCCO3)CC2)n2cc([C@H]3CC[C@H](CN4CCC(c5ccc6c(c5)-n5c(nc(=O)c7c(Cl)cccc75)C65CCCCC5)CC4)CC3)nn2)cc1` [Compound A113, (2S,4R)-1-((S)-2-(1-((S)-1,4-dioxane-2-carbonyl)piperidin-4-yl)-2-(4-((1r,4S)-4-((4-(4′-chloro-5′-oxo-5′H-spiro[cyclohexane-1,7′-indolo[1,2-a]quinazolin]-10′-yl)piperidin-1-yl)methyl)cyclohexyl)-1H-1,2,3-triazol-1-yl)acetyl)-4-hydroxy-N—((S)-1-(4-(4-methylthiazol-5-yl)phenyl)ethyl)pyrrolidine-2-carboxamide], at SMARCA4, the “SMARC A4 Hela HiBit DC50(nM)” value was “No fit” and the Dmax lay in the range of 70 to 90%. In addition, on SMARCA2, the DC50 was below 10 nM and the maximal degradation (Dmax) was above 90%.
